US7897602B2, “Indolinone compounds as kinase inhibitors” (Development Center for Biotechnology, priority 2009, dated 2011)
Structures can show the parent of a compound that is named as a salt.

Assays:
PDGFR-β kinase = target: T1, PDGFR-β kinase (Homo sapiens, UniProt P09619); assay: PDGFR-β kinase assay (33P incorporation into Poly(Glu-Tyr)); assay type: biochemical; conditions: 500 nM test compound
T1 construct: recombinant N-terminal 6×His-tagged PDGFR-β kinase domain construct expressed by baculovirus; 6xHis (N); made in house
T1 sequence (P09619 600-962 limits assumed): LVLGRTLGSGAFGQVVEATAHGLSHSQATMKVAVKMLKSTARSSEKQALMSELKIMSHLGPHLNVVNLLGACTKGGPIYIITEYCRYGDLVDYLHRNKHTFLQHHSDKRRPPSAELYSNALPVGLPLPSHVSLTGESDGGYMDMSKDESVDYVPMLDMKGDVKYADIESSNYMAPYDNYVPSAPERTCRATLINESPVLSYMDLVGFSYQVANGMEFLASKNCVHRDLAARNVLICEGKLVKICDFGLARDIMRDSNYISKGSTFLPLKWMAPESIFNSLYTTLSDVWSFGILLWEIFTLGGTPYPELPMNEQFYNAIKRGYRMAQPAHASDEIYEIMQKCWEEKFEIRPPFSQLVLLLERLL
Experimental: Inhibition of PDGFR-β kinase activity by compounds disclosed herein was quantified by measuring the amount of [^33P] incorporated into the substrate in the presence of a test compound. Briefly, a reaction mixture of 25 μL final volume containing 55 ng of PDGFR-β kinase (obtained by purifying recombinant N-terminal 6×His-tagged PDGFR-β kinase domain construct expressed by baculovirus), 2.5 μg of the substrate (Poly (Glu-Tyr, 4:1, Sigma)), kinase reaction buffer (20 mM MOPS pH 7.0, 1 mM EDTA, 5% glycerol, 0.01% Brij-35, 0.1% β-mercaptoethanol, 1 mg/mL BSA, 2 mM MnCl2, 30 μM ATP, 0.1 μCi per well [^33P]-γ-ATP (2,500-3,000 Ci/mmol)), and a test compound (500 nM, diluted with 4% DMSO) or DMSO (as the control) was incubated at 30° C. for 30 minutes. The reaction was stopped by adding 5 μL of 3% phosphoric acid solution. The resultant reaction solution was then harvested onto a filter plate (UniFilter-96 GF/B, PerkinElmer), washed 20 times for 5 min with d.d. H2O, and followed by the addition of 30 μL of MicroScint™-20 Cocktail (PerkinElmer). The plate was then sealed and counted using a TopCount scintillation detector (PerkinElmer). The percentage of inhibition rate of the test compound was calculated by dividing the retained radioactivity of the test sample with the retained radioactivity of the control sample and shown in Table 3.

c-Met kinase = target: T2, c-Met kinase (Homo sapiens, UniProt P08581); assay: c-Met kinase assay (33P incorporation into Poly(Glu-Tyr)); assay type: biochemical; conditions: 500 nM test compound
T2 construct: recombinant N-terminal 6×His-tagged c-Met kinase domain construct expressed from baculovirus; 6xHis (N); made in house
T2 sequence (P08581 1078-1345 limits assumed): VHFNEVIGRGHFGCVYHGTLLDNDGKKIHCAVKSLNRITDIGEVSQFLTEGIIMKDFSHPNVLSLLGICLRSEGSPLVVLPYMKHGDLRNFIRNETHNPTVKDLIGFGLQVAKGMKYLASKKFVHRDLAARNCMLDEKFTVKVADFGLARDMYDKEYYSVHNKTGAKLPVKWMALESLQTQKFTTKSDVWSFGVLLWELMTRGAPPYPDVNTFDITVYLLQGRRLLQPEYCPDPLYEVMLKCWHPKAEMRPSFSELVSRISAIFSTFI
Method in brief: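 Recombinant N-terminal 6×His-tagged c-Met kinase domain (baculovirus-expressed, 5 ng) acted on Poly(Glu-Tyr) 4:1 with 100 μM ATP plus [33P]-γ-ATP in MOPS pH 7.0 buffer, 30 min at 30° C. Compound was at 500 nM. Filter-retained radioactivity was compared with the DMSO control to give percent inhibition.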

inhibition at 0.5 µM (PDGFR-β kinase) [%] | inhibition at 0.5 µM (c-Met kinase) [%] | Structure (SMILES)
56.7 | -21.3 | O=C(O)CCc1c(/C=C2\C(=O)Nc3cc(-c4cc5ccccc5s4)ccc32)[nH]c2c1C(=O)CCC2 [DCB-70080, (Z)-6-(benzo[b]thiophen-2-yl)-3-((3-carboxyethyl-4-oxo-4,5,6,7-tetrahydro-1H-indol-2-yl)methylene)indolin-2-one]
25.2 | 25.6 | CCOC(=O)CCc1c(/C=C2\C(=O)Nc3cc(-c4ccc(O)c(OC)c4)ccc32)[nH]c2c1C(=O)CCC2 [DCB-70081, (Z)-6-(4-hydroxy-3-methoxyphenyl)-3-((3-(3-ethoxy-3-oxopropyl)-4-oxo-4,5,6,7-tetrahydro-1H-indol-2-yl)methylene)indolin-2-one]
41.4 | 27.3 | COc1cc(-c2ccc3c(c2)NC(=O)/C3=C\c2[nH]c3c(c2CCC(=O)O)C(=O)CCC3)ccc1O [DCB-70082, (Z)-6-(4-hydroxy-3-methoxyphenyl)-3-((3-carboxyethyl-4-oxo-4,5,6,7-tetrahydro-1H-indol-2-yl)methylene)indolin-2-one]
11.6 | 29.8 | CCOC(=O)CCc1c(C=C2C(=S)Nc3ccccc32)[nH]c2c1C(=O)CCC2 [DCB-70083, 3-((3-(3-ethoxy-3-oxopropyl)-4-oxo-4,5,6,7-tetrahydro-1H-indol-2-yl)methylene)indolin-2-thione]
6 | 11.5 | O=C(O)CCc1c(C=C2C(=S)Nc3ccccc32)[nH]c2c1C(=O)CCC2 [DCB-70084, 3-((3-carboxyethyl-4-oxo-4,5,6,7-tetrahydro-1H-indol-2-yl)methylene)indolin-2-thione]
16.5 | 25.1 | CCOC(=O)CCc1c(C=C2C(=S)Nc3cc(Br)ccc32)[nH]c2c1C(=O)CCC2 [DCB-70085, 6-bromo-3-((3-(3-ethoxy-3-oxopropyl)-4-oxo-4,5,6,7-tetrahydro-1H-indol-2-yl)methylene)indolin-2-thione]
12.8 | 21.6 | O=C(O)CCc1c(C=C2C(=S)Nc3cc(Br)ccc32)[nH]c2c1C(=O)CCC2 [DCB-70086, 6-bromo-3-((3-carboxyethyl-4-oxo-4,5,6,7-tetrahydro-1H-indol-2-yl)methylene)indolin-2-thione]
7.8 | 20.9 | O=C(O)CCc1c(/C=C2\C(=O)Nc3ccc(S(=O)(=O)N4CCCC4)cc32)[nH]c2c1C(=O)CCC2 [DCB-70087, (Z)-5-(pyrrolidin-1-ylsulfonyl)-3-((3-carboxyethyl-4-oxo-4,5,6,7-tetrahydro-1H-indol-2-yl)methylene)indolin-2-one]
1 | 25.3 | O=C(O)CCc1c(/C=C2\C(=O)Nc3ccc(S(=O)(=O)N4CCOCC4)cc32)[nH]c2c1C(=O)CCC2 [DCB-70088, (Z)-5-morpholinosulfonyl-3-((3-carboxyethyl-4-oxo-4,5,6,7-tetrahydro-1H-indol-2-yl)methylene)indolin-2-one]
13 | -0.5 | CCOC(=O)CCc1c(/C=C2\C(=O)Nc3ccc(NC(=O)Nc4ccc(C)cc4)cc32)[nH]c2c1C(=O)CCC2 [DCB-70091, (Z)-5-(3-p-tolylureido)-3-((3-(3-ethoxy-3-oxopropyl)-4-oxo-4,5,6,7-tetrahydro-1H-indol-2-yl)methylene)indolin-2-one]
14.1 | 18.6 | CCOC(=O)CCc1c(/C=C2\C(=O)Nc3ccc(NC(=O)Nc4ccc(OC)cc4)cc32)[nH]c2c1C(=O)CCC2 [DCB-70092, (Z)-5-(3-(4-methoxyphenyl)ureido)-3-((3-(3-ethoxy-3-oxopropyl)-4-oxo-4,5,6,7-tetrahydro-1H-indol-2-yl)methylene)indolin-2-one]
40 | 28.2 | Cc1ccc(NC(=O)Nc2ccc3c(c2)/C(=C/c2[nH]c4c(c2CCC(=O)O)C(=O)CCC4)C(=O)N3)cc1 [DCB-70093, (Z)-5-(3-p-tolylureido)-3-((3-carboxyethyl-4-oxo-4,5,6,7-tetrahydro-1H-indol-2-yl)methylene)indolin-2-one]
48.5 | 18.9 | COc1ccc(NC(=O)Nc2ccc3c(c2)/C(=C/c2[nH]c4c(c2CCC(=O)O)C(=O)CCC4)C(=O)N3)cc1 [DCB-70094, (Z)-5-(3-(4-methoxyphenyl)ureido)-3-((3-carboxyethyl-4-oxo-4,5,6,7-tetrahydro-1H-indol-2-yl)methylene)indolin-2-one]
36.2 | 16 | NS(=O)(=O)c1ccc2c(c1)/C(=C/c1[nH]c3c(c1CCC(=O)O)C(=O)CCC3)C(=O)N2 [DCB-70095, (Z)-5-sulfamoyl-3-((3-carboxyethyl-4-oxo-4,5,6,7-tetrahydro-1H-indol-2-yl)methylene)indolin-2-one]
14.9 | 8.9 | CCOC(=O)CCc1c(/C=C2\C(=O)Nc3ccc(NC(=O)c4ccccc4)cc32)[nH]c2c1C(=O)CCC2 [DCB-70096, (Z)-5-benazmido-3-((3-(3-ethoxy-3-oxopropyl)-4-oxo-4,5,6,7-tetrahydro-1H-indol-2-yl)methylene)indolin-2-one]
21.5 | 14.4 | O=C(O)CCc1c(/C=C2\C(=O)Nc3ccc(NC(=O)c4ccccc4)cc32)[nH]c2c1C(=O)CCC2 [DCB-70097, (Z)-5-benazmido-3-((3-carboxyethyl-4-oxo-4,5,6,7-tetrahydro-1H-indol-2-yl)methylene)indolin-2-one]
39.3 | 27.2 | CCOC(=O)CCc1c(/C=C2\C(=O)Nc3cc(-c4ccc(F)cc4)ccc32)[nH]c2c1C(=O)CCC2 [DCB-70098, (Z)-6-(4-fluorophenyl)-3-((3-(3-ethoxy-3-oxopropyl)-4-oxo-4,5,6,7-tetrahydro-1H-indol-2-yl)methylene)indolin-2-one]
74.6 | 22.7 | O=C(O)CCc1c(/C=C2\C(=O)Nc3cc(-c4ccc(F)cc4)ccc32)[nH]c2c1C(=O)CCC2 [DCB-70099, (Z)-6-(4-fluorophenyl)-3-((3-carboxyethyl-4-oxo-4,5,6,7-tetrahydro-1H-indol-2-yl)methylene)indolin-2-one]
20.3 | 13.1 | CCOC(=O)CCc1c(/C=C2\C(=O)Nc3cc(-c4cc(F)cc(F)c4)ccc32)[nH]c2c1C(=O)CCC2 [DCB-70100, (Z)-6-(3,5-difluorophenyl)-3-((3-(3-ethoxy-3-oxopropyl)-4-oxo-4,5,6,7-tetrahydro-1H-indol-2-yl)methylene)indolin-2-one]
70.5 | 26.7 | O=C(O)CCc1c(/C=C2\C(=O)Nc3cc(-c4cc(F)cc(F)c4)ccc32)[nH]c2c1C(=O)CCC2 [DCB-70101, (Z)-6-(3,5-difluorophenyl)-3-((3-carboxyethyl-4-oxo-4,5,6,7-tetrahydro-1H-indol-2-yl)methylene)indolin-2-one]
32.8 | 33.7 | CCOC(=O)CCc1c(/C=C2\C(=O)Nc3ccc(NS(=O)(=O)c4ccccc4)cc32)[nH]c2c1C(=O)CCC2 [DCB-70102, (Z)-5-phenylsulfonamido-3-((3-(3-ethoxy-3-oxopropyl)-4-oxo-4,5,6,7-tetrahydro-1H-indol-2-yl)methylene)indolin-2-one]
51 | 37.9 | O=C(O)CCc1c(/C=C2\C(=O)Nc3ccc(NS(=O)(=O)c4ccccc4)cc32)[nH]c2c1C(=O)CCC2 [DCB-70103, (Z)-5-phenylsulfonamido-3-((3-carboxyethyl-4-oxo-4,5,6,7-tetrahydro-1H-indol-2-yl)methylene)indolin-2-one]
27.2 | 19.7 | CC(=O)Nc1ccc2c(c1)/C(=C/c1[nH]c3c(c1CCC(=O)O)C(=O)CCC3)C(=O)N2 [DCB-70104, (Z)-5-acetamido-3-((3-carboxyethyl-4-oxo-4,5,6,7-tetrahydro-1H-indol-2-yl)methylene)indolin-2-one]
36.3 | 59.6 | O=C(O)CCc1c(/C=C2\C(=O)Nc3ccc(S(=O)(=O)N4CCc5ccccc54)cc32)[nH]c2c1C(=O)CCC2 [DCB-70106, (Z)-5-(indolin-1-ylsulfonyl)-3-((3-carboxyethyl-4-oxo-4,5,6,7-tetrahydro-1H-indol-2-yl)methylene)indolin-2-one]
8 | 59.6 | CN1CCN(S(=O)(=O)c2ccc3c(c2)/C(=C/c2[nH]c4c(c2CCC(=O)O)C(=O)CCC4)C(=O)N3)CC1 [DCB-70107, (Z)-5-(4-methylpiperazin-1-ylsunfonyl)-3-((3-carboxyethyl-4-oxo-4,5,6,7-tetrahydro-1H-indol-2-yl)methylene)indolin-2-one hydrochloride]
